A word on the IC50: it is the concentration that inhibits the measured activity by half. Low values mean inhibition by little substance, high ones a need for much substance.

The structures appear in SMILES notation.

The text below walks through data of paper PMC3676669 (Journal of inorganic biochemistry, 2012).

The experiment concerns the target T1, 20S proteasome, chymotrypsin-like activity (β5 subunit) (Oryctolagus cuniculus, UniProt G1T4Q9).
T1 sequence (G1T4Q9 1-263): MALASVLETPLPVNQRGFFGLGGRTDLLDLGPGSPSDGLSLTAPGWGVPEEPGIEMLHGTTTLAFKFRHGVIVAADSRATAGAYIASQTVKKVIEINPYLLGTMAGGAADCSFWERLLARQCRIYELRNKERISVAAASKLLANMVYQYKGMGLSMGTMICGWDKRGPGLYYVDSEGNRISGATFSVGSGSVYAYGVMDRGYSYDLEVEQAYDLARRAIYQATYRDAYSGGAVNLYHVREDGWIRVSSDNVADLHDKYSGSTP
Put plainly: fluorogenic Suc-LLVY-AMC hydrolysis by purified […] proteasome, […] h. The format is biochemical.
The compound `COc1cccc2c1[O][Cu-3]13([O]C(=O)[C@H](CCSC)[N+]1=C2)[n+]1ccccc1-c1cccc[n+]13` [C2, [Cu(L1)(Bpy)]·3H2O] registered an IC50 of 46.5 µM.
The value for `CC(C)[C@H]1C(=O)[O][Cu-3]23([O]c4ccc5ccccc5c4C=[N+]12)[n+]1ccccc1-c1cccc[n+]13` [C4, [Cu(L2)(Bpy)]·3H2O] was 42.5 µM; that for `COc1cccc2c1[O][Cu-3]13([O]C(=O)C(CCSC)[N+]1=C2)[n+]1cccc2ccc4ccc[n+]3c4c21` (stereo not shown) [C1, [Cu(L1)(Phen)]·9H2O] was 13.3 µM.
Compound `CC(C)[C@H]1C(=O)[O][Cu-3]23([O]c4ccc5ccccc5c4C=[N+]12)[n+]1cccc2ccc4ccc[n+]3c4c21` [C3, [Cu(L2)(Phen)]·3H2O] had an IC50 of 11.3 µM.
